Laboratory results: patent US9284284B2, “Oxazine derivatives and their use in the treatment of disease” (NOVARTIS AG, priority 2011, dated 2016)
pIC50: −log10 of the molar value. Counter-ions that a name gives are not always drawn. Like-named read-outs stand apart in the source and are kept apart here.

What was measured:
[1] = test system: amyloid peptide 1-40 release; assay: Test 4: Inhibition of Cellular Release of Amyloid Peptide 1-40; format: cell-based; conditions: Chinese hamster ovary cells transfected with the human gene for amyloid precursor protein, 24 hours, read-out: Amyloid-β1-40 release IC50
Method: Chinese hamster ovary cells are transfected with the human gene for amyloid precursor protein. The cells are plated at a density of 8000 cells/well into 96-well microtiter plates and cultivated for 24 hours in DMEM cell culture medium containing 10% FCS. The test compound is added to the cells at various concentrations, and the cells are cultivated for 24 hours in the presence of the test compound. […] The potency of the compound is calculated from the percentage of inhibition of amyloid peptide release as a function of the test compound concentration.

human BACE-2 = human BACE-2 (Homo sapiens (Human), UniProt Q9Y5Z0); assay: Test 2: Inhibition of Human BACE-2; format: biochemical; conditions: recombinant BACE-2, pH 4.5, fluorescence-quenched substrate
Chain of human BACE-2 (Q9Y5Z0 63-473): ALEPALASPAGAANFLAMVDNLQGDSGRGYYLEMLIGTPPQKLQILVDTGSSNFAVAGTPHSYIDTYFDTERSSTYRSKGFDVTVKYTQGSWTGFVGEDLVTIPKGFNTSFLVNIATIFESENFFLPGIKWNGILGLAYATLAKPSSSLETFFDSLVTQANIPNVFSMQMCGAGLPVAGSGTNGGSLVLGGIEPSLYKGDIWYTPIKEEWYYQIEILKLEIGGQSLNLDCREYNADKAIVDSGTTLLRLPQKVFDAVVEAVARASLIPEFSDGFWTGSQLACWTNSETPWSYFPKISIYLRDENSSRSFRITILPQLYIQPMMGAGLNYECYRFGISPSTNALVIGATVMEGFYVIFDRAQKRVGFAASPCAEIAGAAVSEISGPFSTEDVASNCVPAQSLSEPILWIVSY
Method: Test 2: Inhibition of Human BACE-2
(§1) Recombinant BACE-2 (extracellular domain, expressed in baculovirus and purified using standard methods) at 0.1 to 1 nM concentrations is incubated with the test compound at various concentrations for 1 hour at room temperature in 100 mM acetate buffer, pH 4.5, containing 0.1% CHAPS. Activity was measured using a final concentration of 3 μM of the fluorescence-quenched substrate Q-C(HSO3)-Ile-Asp-Leu-Ala-Val-Leu-Asp-HN—CH2—CH2-Mca, where Q=2-nitro-5-amino benzoic acid and Mca=7-methoxy-4-coumarinyl acetic acid. […] Fluorescence increase was followed for 15 min, in 1 minute's intervals. The fluorescence/time slopes were calculated from duplicate wells and from wells without inhibitor and the IC50 values were calculated using a logistic 4-parameter model.

human BACE-1 = human BACE-1 (Homo sapiens (Human), UniProt P56817); assay: Test 1: Inhibition of Human BACE-1; format: biochemical; conditions: recombinant BACE-1, pH 4.5, fluorescence-quenched substrate
Chain of human BACE-1 (P56817 46-457): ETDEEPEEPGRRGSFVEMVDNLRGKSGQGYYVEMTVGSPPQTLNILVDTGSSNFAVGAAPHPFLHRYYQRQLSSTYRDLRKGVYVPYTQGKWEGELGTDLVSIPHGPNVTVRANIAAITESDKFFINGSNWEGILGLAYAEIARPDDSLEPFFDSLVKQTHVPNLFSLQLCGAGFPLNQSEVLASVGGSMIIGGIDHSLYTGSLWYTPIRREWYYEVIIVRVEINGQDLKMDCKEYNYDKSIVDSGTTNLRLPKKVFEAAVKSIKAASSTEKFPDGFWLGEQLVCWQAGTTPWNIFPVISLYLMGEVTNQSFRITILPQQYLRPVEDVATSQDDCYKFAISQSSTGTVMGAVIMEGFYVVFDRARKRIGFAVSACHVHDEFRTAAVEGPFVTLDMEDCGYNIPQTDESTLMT
Method: Test 1: Inhibition of Human BACE-1
as §1, with “BACE-1” for “BACE-2”

Compound	pIC50 ([1]; Cricetulus griseus)	pIC50 (human BACE-2)	pIC50 (human BACE-1)	pIC50 [1]
CC1(c2cccc(Nc3nsc4cc(Br)ccc34)c2)COCC(N)=N1 (centres unmarked) [Example 1, [3-(5-Amino-3-methyl-3,6-dihydro-2H-[1,4]oxazin-3-yl)-phenyl]-(6-bromo-benzo[d]isothiazol-3-yl)-amine]	5.54	5.72	5.82	–
Cn1nc(Nc2cccc(C3(C)COCC(N)=N3)c2)c2ccc(Br)cc21 (centres unmarked) [Example 2, [3-(5-Amino-3-methyl-3,6-dihydro-2H-[1,4]oxazin-3-yl)-phenyl]-(6-bromo-1-methyl-1H-indazol-3-yl)-amine]	5.46	< 5.00	5.28	–
CC1(c2cccc(Nc3noc4ccccc34)c2)COCC(N)=N1 (centres unmarked) [Example 3, [3-(5-Amino-3-methyl-3,6-dihydro-2H-[1,4]oxazin-3-yl)-phenyl]-benzo[d]isoxazol-3-yl-amine]	5.15	5.49	5.05	–
CC1(c2cc(NCc3ccco3)ccc2F)COCC(N)=N1 (centres unmarked) [Example 4, 5-{2-Fluoro-5-[(furan-2-ylmethyl)-amino]-phenyl}-5-methyl-5,6-dihydro-2H-[1,4]oxazin-3-ylamine]	6.42	5.62	5.72	–
NC1=NC(CF)(c2cc(NCc3ccc(Br)cc3Cl)ccc2F)COC1 (centres unmarked) [Example 5, 5-[5-(4-Bromo-2-chloro-benzylamino)-2-fluoro-phenyl]-5-fluoromethyl-5,6-dihydro-2H-[1,4]oxazin-3-ylamine]	5.85	5.28	5.44	–
NC1=NC(c2cc(NCc3cc(Br)co3)ccc2F)(C(F)F)COC1 (centres unmarked) [Example 6, 5-{5-[(4-Bromo-furan-2-ylmethyl)-amino]-2-fluoro-phenyl}-5-difluoromethyl-5,6-dihydro-2H-[1,4]oxazin-3-ylamine]	6.13	5.08	5.21	–
COCCOc1cnc2c(Nc3ccc(F)c([C@]4(C(F)F)COCC(N)=N4)c3)nccc2c1 [Example 10, [3-((R)-5-Amino-3-difluoromethyl-3,6-dihydro-2H-[1,4]oxazin-3-yl)-4-fluoro-phenyl]-[3-(2-methoxy-ethoxy)-[1,7]naphthyridin-8-yl]-amine]	7.62	5.09	6.22	–
NC1=N[C@@](c2cc(Nc3nccc4cc(OCCCl)cnc34)ccc2F)(C(F)F)COC1 [Example 11]	6.60	5.25	5.72	–
NC1=N[C@@](c2cc(Nc3nccn4ccnc34)ccc2F)(C(F)F)COC1 [Example 13, [3-((R)—S-Amino-3-difluoromethyl-3,6-dihydro-2H-[1,4]oxazin-3-yl)-4-fluoro-phenyl]-imidazo[1,2-a]pyrazin-8-yl-amine]	–	6.39	5.85	6.59
NC1=N[C@@](c2cc(Nc3nccn4c(Br)cnc34)ccc2F)(C(F)F)COC1 [Example 14, [3-((R)-5-Amino-3-difluoromethyl-3,6-dihydro-2H-[1,4]oxazin-3-yl)-4-fluoro-phenyl]-(3-bromo-imidazo[1,2-a]pyrazin-8-yl)-amine]	6.66	5.85	6.24	–
NC1=N[C@@](c2cc(Nc3ncccn3)ccc2F)(C(F)F)COC1 [Example 16, (R)-5-Difluoromethyl-5-[2-fluoro-5-(pyrimidin-2-ylamino)-phenyl]-5,6-dihydro-2H-[1,4]oxazin-3-ylamine]	5.64	< 5.00	5.07	–
COc1ccnc(Nc2ccc(F)c([C@]3(C(F)F)COCC(N)=N3)c2)n1 [Example 17, (R)-5-Difluoromethyl-5-[2-fluoro-5-(4-methoxy-pyrimidin-2-ylamino)-phenyl]-5,6-dihydro-2H-[1,4]oxazin-3-ylamine]	6.40	6.17	5.74	–
COc1nccnc1Nc1ccc(F)c([C@]2(C(F)F)COCC(N)=N2)c1 [Example 18, (R)-5-Difluoromethyl-5-[2-fluoro-5-(3-methoxy-pyrazin-2-ylamino)-phenyl]-5,6-dihydro-2H-[1,4]oxazin-3-ylamine]	6.17	5.89	5.62	–
COc1cncnc1Nc1ccc(F)c([C@]2(C(F)F)COCC(N)=N2)c1 [Example 21, (R)-5-Difluoromethyl-5-[2-fluoro-5-(5-methoxy-pyrimidin-4-ylamino)-phenyl]-5,6-dihydro-2H-[1,4]oxazin-3-ylamine]	6.37	6.25	5.82	–
COc1c(N)ncnc1Nc1ccc(F)c([C@]2(C(F)F)COCC(N)=N2)c1 [N-[3-((R)-5-amino-3-difluoromethyl-3,6-dihydro-2H-[1,4]oxazin-3-yl)-4-fluoro-phenyl]-5-methoxy-pyrimidine-4,6-diamine]	–	< 5.00	< 5.00	–

The next compounds have a higher pIC50 (human BACE-2) than those just listed; values first:

pIC50 ([1]; Cricetulus griseus)	pIC50 (human BACE-2)	pIC50 (human BACE-1)	Compound	pIC50 [1]
6.62	6.47	6.01	NC1=N[C@@](c2cc(Nc3ncccc3OC(F)F)ccc2F)(C(F)F)COC1 [Example 22, (R)-5-[5-(3-Difluoromethoxy-pyridin-2-ylamino)-2-fluoro-phenyl]-5-difluoromethyl-5,6-dihydro-2H-[1,4]oxazin-3-ylamine]	–
7.34	6.55	7.08	C[C@@]1(c2cc(Nc3ncnc4cc(C(F)(F)F)cnc34)ccc2F)CO[C@@](C)(C(F)(F)F)C(N)=N1 [Example 24, [3-((3R,6R)-5-Amino-3,6-dimethyl-6-trifluoromethyl-3,6-dihydro-2H-[1,4]oxazin-3-yl)-4-fluoro-phenyl]-(7-trifluoromethyl-pyrido[3,2-d]pyrimidin-4-yl)-amine]	–
6.28	6.66	5.89	NC1=N[C@@](c2cc(Nc3ncccc3OCC(F)F)ccc2F)(C(F)F)COC1 [Example 20, (R)-5-{5-[3-(2,2-Difluoro-ethoxy)-pyridin-2-ylamino]-2-fluoro-phenyl}-5-difluoromethyl-5,6-dihydro-2H-[1,4]oxazin-3-ylamine]	–
6.51	6.80	5.89	CCOc1cccnc1Nc1ccc(F)c([C@]2(C(F)F)COCC(N)=N2)c1 [Example 19, (R)-5-Difluoromethyl-5-[5-(3-ethoxy-pyridin-2-ylamino)-2-fluoro-phenyl]-5,6-dihydro-2H-[1,4]oxazin-3-ylamine]	–
7.25	7.05	6.52	COc1cccnc1Nc1ccc(F)c([C@]2(C(F)F)COCC(N)=N2)c1 [Example 15, (R)-5-Difluoromethyl-5-[2-fluoro-5-(3-methoxy-pyridin-2-ylamino)-phenyl]-5,6-dihydro-2H-[1,4]oxazin-3-ylamine]	–
7.07	7.14	6.46	Cc1cn2ccnc(Nc3ccc(F)c([C@]4(C(F)F)COCC(N)=N4)c3)c2n1 [Example 12, [3-((R)-5-Amino-3-difluoromethyl-3,6-dihydro-2H-[1,4]oxazin-3-yl)-4-fluoro-phenyl]-(2-methyl-imidazo[1,2-a]pyrazin-8-yl)-amine]	–
7.66	7.49	7.44	NC1=N[C@@](c2cc(Nc3ncnc4cc(Cl)cnc34)ccc2F)(C(F)F)COC1 [Example 7]	–
8.30	7.52	7.74	N#Cc1cnc2c(Nc3ccc(F)c([C@]4(C(F)F)COCC(N)=N4)c3)nccc2c1 [Example 9, 8-[3-((R)-5-Amino-3-difluoromethyl-3,6-dihydro-2H-[1,4]oxazin-3-yl)-4-fluoro-phenylamino]-[1,7]naphthyridine-3-carbonitrile]	–
7.48	7.96	7.68	NC1=N[C@@](c2cc(Nc3nccc4cc(Br)cnc34)ccc2F)(C(F)F)COC1 [Example 8, [3-((R)-5-Amino-3-difluoromethyl-3,6-dihydro-2H-[1,4]oxazin-3-yl)-4-fluoro-phenyl]-(3-bromo-[1,7]naphthyridin-8-yl)-amine]	–
7.29	7.96	7.40	C[C@@]1(c2cc(Nc3ncnc4cc(Cl)cnc34)ccc2F)CO[C@@](C)(C(F)(F)F)C(N)=N1 [Example 23, [3-((3R,6R)-5-Amino-3,6-dimethyl-6-trifluoromethyl-3,6-dihydro-2H-[1,4]oxazin-3-yl)-4-fluoro-phenyl]-(7-chloro-pyrido[3,2-d]pyrimidin-4-yl)-amine di-hydrochloride]	–
